The source of these data is patent US20120172361A1, “TRIAZINE DERIVATIVES AND THEIR THERAPEUTICAL APPLICATIONS” (CALIFORNIA CAPITAL EQUITY, LLC, priority 2009, published 2012).

In this experiment the target is T1, Aurora-A(h) (Homo sapiens, UniProt O14965).
T1 construct: purchased Millipore (KinaseProfiler service); also Reaction Biology Corp. (Kinase Hotspot)
T1 sequence (O14965 1-403): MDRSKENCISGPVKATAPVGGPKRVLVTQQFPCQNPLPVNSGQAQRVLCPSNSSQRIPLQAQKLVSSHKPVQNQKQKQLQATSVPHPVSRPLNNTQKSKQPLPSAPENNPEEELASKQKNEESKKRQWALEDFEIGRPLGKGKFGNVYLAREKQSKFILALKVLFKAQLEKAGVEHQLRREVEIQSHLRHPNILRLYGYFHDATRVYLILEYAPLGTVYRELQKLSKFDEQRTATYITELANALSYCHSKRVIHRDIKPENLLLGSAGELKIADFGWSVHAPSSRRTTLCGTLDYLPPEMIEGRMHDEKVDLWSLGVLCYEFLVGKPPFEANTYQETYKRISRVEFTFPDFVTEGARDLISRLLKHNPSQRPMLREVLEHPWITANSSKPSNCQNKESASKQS
The experiment is described as follows: Aurora-A kinase assay (KinaseProfiler Service Assay Protocols, Millipore; also Kinase Hotspot, Reaction Biology Corp.). It counts as biochemical. To be noted: compound concentration 1 μM. As for the experimental part: This example illustrated Aurora Kinase Assays of selected Compounds from this invention (referred to Daniele Fancelli et al, J. Med. Chem., 2006, 49 (24), pp 7247-7251). The KinaseProfiler™ Service Assay Protocols (Millipore) were used to test the kinase inhibiting activity of novel compounds from this invention. To do this, the buffer composition was as: 20 mM MOPS, 1 mM EDTA, 0.01% Brij-35, 5% Glycerol, 0.1% β-mercaptoethanol, 1 mg/mL BSA. Test compounds were initially dissolved in DMSO at the desired concentration, then serially diluted to the kinase assay buffer. In a final reaction volume of 25 μL, Aurora-A(h) (5-10 mU) is incubated with 8 mM MOPS pH 7.0, 0.2 mM EDTA, 200 μM LRRASLG (Kemptide), 10 mM MgAcetate and [γ33P-ATP]. The reaction was initiated by the addition of the MgATP mix. After incubation for 40 minute at room temperature, the reaction was stopped by addition of 5 μL of a 3% phosphoric acid solution. 10 μL of the reaction was then spotted onto a P30 filtermat and washed three times for 5 minutes in 50 mM phosphoric acid and once in methanol prior to drying and scintillation counting. Wells containing substrate but no kinase and wells containing a phosphopeptide control were used to set 0% and 100% phosphorylation value, respectively.
Also Kinase Hotspot SM kinase assay was used to test the compounds for IC50 or % inhibitions (Reaction Biology Corp.). Inhibitor IC50 values were determined by titration of compound at the optimal kinase concentration (Kinase EC50).
As for `CCN(CC)c1nc(Nc2ncc(C)s2)nc(Sc2ccc(NC(=O)C3CC3)cc2)n1` [Example 42], the inhibition at 1 µM was more than 50%.

The compound `Cc1cc(Nc2nc(Sc3ccc(C(=O)Nc4ccccc4)cc3)nc(N3CCN(C)CC3)n2)n[nH]1` [Example 116] gave an inhibition at 1 µM of more than 90%.

The compound `CN1CCN(c2nc(Nc3cc(C(C)(C)C)[nH]n3)nc(Sc3ccc(NC(=O)C4CC4)cc3)n2)CC1` [Example 54] showed an inhibition at 1 µM of more than 50%.

As for `CN1CCN(c2nc(Nc3nc[nH]n3)nc(Sc3ccc(NC(=O)C4CC4)cc3)n2)CC1` [Example 8], the inhibition at 1 µM was less than 50%.

`Cc1cc(Nc2nc(Sc3ccc(C(=O)NC(C)C)cc3)nc(N3CCN(C)CC3)n2)n[nH]1` [Example 115] returned an inhibition at 1 µM of more than 90%.

`CCN(CC)c1nc(Nc2cc(C)[nH]n2)nc(Sc2ccc(NC(=O)C3CC3)cc2)n1` [Example 94] returned an inhibition at 1 µM of more than 90%.

As for `Cc1cnc(Nc2nc(Sc3ccc(NC(=O)C4CC4)cc3)nc(N3CCN(C)CC3)n2)s1` [Example 10], the inhibition at 1 µM is more than 90%.

The compound `Cc1cc(Nc2nc(Sc3ccc(NC(=O)C4CC4)cc3)nc(N3CCN(C)CC3)n2)n[nH]1` [Example 2] yielded an inhibition at 1 µM of more than 90%.

For the compound `Cc1cc(Nc2nc(NCCCN3CCOCC3)nc(Sc3ccc(NC(=O)C4CC4)cc3)n2)n[nH]1` [Example 90], the inhibition at 1 µM was more than 90%.

`Cc1nnc(Nc2nc(Sc3ccc(NC(=O)C4CC4)cc3)nc(N3CCN(C)CC3)n2)s1` [Example 77] returned an inhibition at 1 µM of less than 50%.

The compound `CCc1nc(Nc2cc(C)[nH]n2)nc(N2CCN(C)CC2)n1` [Example 103] yielded an inhibition at 1 µM of less than 50%.

`Cc1cc(Nc2nc(Sc3ccc(NC(=O)C4CC4)cc3)nc(N3CCN(c4ccncc4)CC3)n2)n[nH]1` [Example 12] gave an inhibition at 1 µM of more than 90%.

`CCc1nc(Nc2cc(C)[nH]n2)nc(Sc2ccc(C(=O)NC3CC3)cc2)n1` [Example 107] registered an inhibition at 1 µM of less than 50%.

For `Cc1nc(Nc2nc(Sc3ccc(NC(=O)C4CC4)cc3)nc(N3CCN(C)CC3)n2)sc1C` [Example 61], the inhibition at 1 µM is less than 50%.

With `O=C(Nc1ccc(Sc2nc(Nc3ncc[nH]3)nc(-c3ccccc3)n2)cc1)C1CC1` [Example 16], the inhibition at 1 µM was less than 50%.

`Cc1cc(Nc2nc(Sc3ccc(C(=O)NCc4ccc(F)cc4)cc3)nc(N3CCN(C)CC3)n2)n[nH]1` [Example 118]: the inhibition at 1 µM is more than 90%.

For `Cc1cc(Nc2nc(N)nc(Sc3ccc(NC(=O)C4CC4)cc3)n2)n[nH]1` [Example 97], the inhibition at 1 µM is more than 90%.

For `CC(C)c1cnc(Nc2nc(Sc3ccc(NC(=O)C4CC4)cc3)nc(N3CCN(C)CC3)n2)s1` [Example 52], the inhibition at 1 µM is more than 90%.

For `Cc1cnc(Nc2nc(Sc3ccc(NC(=O)C4CC4)cc3)nc(N3CCN(CCO)CC3)n2)s1` [Example 19], the inhibition at 1 µM is more than 90%.

For `CCC(=O)Nc1ccc(Sc2nc(CC)nc(Nc3cc(C4CC4)[nH]n3)n2)cc1` [Example 84], the inhibition at 1 µM was more than 90%.

`Cc1cnc(Nc2nc(Sc3ccc(NC(=O)c4ccccc4)cc3)nc(N3CCN(C)CC3)n2)s1` [Example 113] came in with an inhibition at 1 µM of more than 90%.

`Cc1cc(Nc2nc(Sc3ccc(NC(=O)C4CC4)cc3)nc(N(C)C)n2)n[nH]1` [Example 127]: the inhibition at 1 µM is more than 90%.

`CCC(=O)Nc1ccc(Sc2nc(CC)nc(Nc3cc(C)[nH]n3)n2)cc1` [Example 83] had an inhibition at 1 µM of more than 90%.

In turn, `CC(=O)Nc1ccc(Sc2nc(N3CCN(C)CC3)nc(-n3cc(C)sc3=N)n2)cc1` [Example 67] came in with an inhibition at 1 µM of less than 50%.

On to `CC(=O)Nc1ccc(Sc2nc(Nc3ncc(C)s3)nc(N3CCN(C)CC3)n2)cc1` [Example 73], for which the inhibition at 1 µM is more than 90%.

Compound `Cc1cnc(Nc2nc(Sc3ccc(NC(=O)C4CC4)cc3)nc(N3CCCCC3)n2)s1` [Example 44] had an inhibition at 1 µM of more than 50%.

`CCC(=O)Nc1ccc(Sc2nc(C)nc(Nc3cc(C4CC4)[nH]n3)n2)cc1` [Example 87] gave an inhibition at 1 µM of more than 90%.

`Cc1cnc(Nc2nc(Sc3ccc(N)cc3)nc(N3CCN(C)CC3)n2)s1` [Example 48] returned an inhibition at 1 µM of more than 50%.

`Cc1cc(Nc2nc(Sc3ccc(NC(=O)C4CC4)cc3)nc(N3CCOCC3)n2)n[nH]1` [Example 88] had an inhibition at 1 µM of more than 90%.

For `Cc1ccc(Nc2nc(Sc3ccc(NC(=O)C4CC4)cc3)nc(N3CCN(C)CC3)n2)nc1` [Example 122], the inhibition at 1 µM is more than 50%.

With `Cc1cnc(Nc2nc(Sc3ccc(NC(=O)C4CC4)cc3)nc(N(C)CCN(C)C)n2)s1` [Example 40], the inhibition at 1 µM was more than 50%.

Consider `Cc1cc(Nc2nc(Sc3ccc(NC(=O)C4CC4)cc3)nc(N3CCCC3)n2)n[nH]1` [Example 89], for which the inhibition at 1 µM is more than 90%.

Regarding `CCc1nc(Nc2cc(C)[nH]n2)nc(N2CCN(c3ccncc3)CC2)n1` [Example 13], the inhibition at 1 µM was more than 50%.

As for `Cc1cc(Nc2nc(Sc3ccc(NC(=O)C4CC4)cc3)nc(N3CCN(C)CC3)n2)no1` [Example 120], the inhibition at 1 µM is less than 50%.

As for `CCC(=O)Nc1ccc(Sc2nc(Nc3cc(C4CC4)[nH]n3)nc(C3CC3)n2)cc1` [Example 81], the inhibition at 1 µM was more than 90%.

Take `Cc1cnc(Nc2nc(Sc3ccc(NC(=O)C4CC4)cc3)nc(N3CCN(c4ccncc4)CC3)n2)s1` [Example 20]: the inhibition at 1 µM was more than 90%.

With `Cc1cnc(Nc2nc(NCCN(C)C)nc(Sc3ccc(NC(=O)C4CC4)cc3)n2)s1` [Example 39], the inhibition at 1 µM is more than 90%.

With `CN1CCN(c2nc(Nc3cc(C4CCC4)[nH]n3)nc(Sc3ccc(NC(=O)C4CC4)cc3)n2)CC1` [Example 55], the inhibition at 1 µM was more than 90%.

For `CCc1nc(Nc2ncc(C)s2)nc(N2CCN(C)CC2)n1` [Example 75], the inhibition at 1 µM was less than 50%.

On to `CC(C)c1cc(Nc2nc(Sc3ccc(NC(=O)C4CC4)cc3)nc(N3CCN(C)CC3)n2)n[nH]1` [Example 56], for which the inhibition at 1 µM is more than 50%.

With `Cc1cnc(Nc2nc(NCCCN3CCOCC3)nc(Sc3ccc(NC(=O)C4CC4)cc3)n2)s1` [Example 38], the inhibition at 1 µM is more than 90%.

`Cc1cc(Nc2nc(Sc3ccc(NC(=O)C4CC4)cc3)nc(N3CCN(CCO)CC3)n2)n[nH]1` [Example 96] showed an inhibition at 1 µM of more than 90%.

Consider `CCCCNc1nc(Nc2ncc(C)s2)nc(Sc2ccc(NC(=O)C3CC3)cc2)n1` [Example 41], for which the inhibition at 1 µM was less than 50%.

Turning to `CCC(=O)Nc1ccc(Sc2nc(Nc3ncc(C)s3)nc(N3CCN(C)CC3)n2)cc1` [Example 114], the inhibition at 1 µM was more than 90%.

Turning to `Cc1cc(Nc2nc(Sc3ccc(NC(=O)C4CC4)cc3)nc(N(C)CCN(C)C)n2)n[nH]1` [Example 92], the inhibition at 1 µM was more than 50%.

In turn, `CN1CCN(c2nc(Nc3nncs3)nc(Sc3ccc(NC(=O)C4CC4)cc3)n2)CC1` [Example 11] returned an inhibition at 1 µM of less than 50%.

Turning to `Cc1cc(Nc2nc(Sc3ccc(C(=O)NC4CC4)cc3)nc(N3CCN(C)CC3)n2)n[nH]1` [Example 106], the inhibition at 1 µM is more than 50%.

Take `Cc1csc(Nc2nc(Sc3ccc(NC(=O)C4CC4)cc3)nc(N3CCN(C)CC3)n2)n1` [Example 64]: the inhibition at 1 µM is less than 50%.

`Cc1cc(Nc2nc(Sc3ccc(NC(=O)C4CC4)cc3)nc(N3CCN(C)CC3)n2)on1` [Example 76] showed an inhibition at 1 µM of more than 50%.

`Cc1cnc(Nc2nc(Sc3ccc(NC(=O)C4CC4)cc3)nc(N3CCOCC3)n2)s1` [Example 21]: the inhibition at 1 µM is more than 90%.

In general, inhibition refers to the drop in the measured response relative to a control, in per cent. Read a low inhibition as little suppression.
